Data on six compounds can be found in patent US9593149B2, “Amylin and calcitonin receptor agonist” (Novo Nordisk A/S, priority 2014, dated 2017).

The structures appear in SMILES notation. ≈ marks a conversion by molar mass, not a printed value. Numbered stars: 1 amine (or outer) side, 2 acyl side, 3 side chain; on linkers, the order of the positions; unused ones are H or OH. Peptide text beside a SMILES is read from it. * marks the point of attachment. C20 diacid = O=C(O)CCCCCCCCCCCCCCCCCCC(=O)*; C18 diacid = O=C(O)CCCCCCCCCCCCCCCCC(=O)*; γGlu = O=C(O)[C@H](CCC(=O)[*:2])N[*:1]

This data set is described as follows: Assay (IV) determination of solubility. It is filed as physicochemical. On the procedure:
Assay (IV)—Determination of Solubility
The mimylin peptide was dissolved in water at ˜500 nmol/ml and mixed 1:1 with a series of buffers (100 mM glycylglycine pH 3.0, 100 mM glycylglycine pH 4.0, 100 mM glycylglycine pH 5.0, 100 mM bistrispropane pH 6.0, 100 mM bistrispropane pH 6.5, 100 mM bistrispropane pH 7.0, 100 mM bistrispropane pH 7.5, 100 mM bistrispropane pH 8.0).

As usually defined, the solubility is the dissolved amount per volume that the medium holds. Read a low solubility as little dissolved substance. Turning to `CC(C)C[C@H](NC(=O)[C@H](CCCNC(=N)N)NC(=O)CNC(=O)[C@H](CC(C)C)NC(=O)[C@@H](NC(=O)[C@H](C)NC(=O)[C@@H](NC(=O)[C@H](CO)NC(=O)[C@H](CC(C)C)NC(=O)[C@H](CCC(=O)O)NC(=O)[C@H](CO)NC(=O)[C@H](C)NC(=O)CC[C@H](NC(=O)CCCCCCCCCCCCCCCCCCC(=O)O)C(=O)O)[C@@H](C)O)[C@@H](C)O)C(=O)N[C@@H](CO)C(=O)N[C@@H](C)C(=O)N[C@@H](CCC(=O)O)C(=O)N[C@@H](CC(C)C)C(=O)N[C@@H](Cc1cnc[nH]1)C(=O)N[C@@H](CCC(=O)O)C(=O)N[C@@H](CC(C)C)C(=O)N[C@@H](CO)C(=O)N[C@H](C(=O)N[C@@H](Cc1ccc(O)cc1)C(=O)N1CCC[C@H]1C(=O)N[C@@H](CCCNC(=N)N)C(=O)N[C@H](C(=O)N[C@@H](CCC(=O)O)C(=O)N[C@H](C(=O)NCC(=O)N[C@@H](CO)C(=O)NCC(=O)N[C@@H](CO)C(=O)N1CCC[C@H]1C(N)=O)[C@@H](C)O)[C@@H](C)O)[C@@H](C)O` [compound 92, [N-terminal(C20 diacid-gGlu), des1, 9T, 21S, 23Y, 30S, 31G]mimylin] ({C20 diacid-γGlu}-ASELSTATLGRLSAELHELSTYPRTETGSGSP-NH2), the Solubility entry is on record as “≧200 μM” (pH 3.0); “≧200 μM” (pH 4.0); “≧200 μM” (pH 6.0); “≧200 μM” (pH 6.5); “≧200 μM” (pH 7.0); “≧200 μM” (pH 7.5). Also, the Solubility result (pH 8.0) is given as “≧200 μM”. The compound also registered a solubility at 18 h (pH 5.0) of 169 µM (≈ 638 µg/mL).

As for `CC(C)C[C@H](NC(=O)[C@H](C)NC(=O)[C@H](C)NC(=O)[C@@H](NC(=O)[C@H](CO)NC(=O)[C@H](CC(C)C)NC(=O)[C@H](CCC(=O)O)NC(=O)[C@H](CO)NC(=O)[C@H](C)NC(=O)CC[C@H](NC(=O)CCCCCCCCCCCCCCCCCCC(=O)O)C(=O)O)[C@@H](C)O)C(=O)NCC(=O)N[C@@H](Cc1cnc[nH]1)C(=O)N[C@@H](CC(C)C)C(=O)N[C@@H](CO)C(=O)N[C@@H](C)C(=O)N[C@@H](CCC(=O)O)C(=O)N[C@@H](CC(C)C)C(=O)N[C@@H](Cc1cnc[nH]1)C(=O)N[C@@H](CCC(=O)O)C(=O)N[C@@H](CC(C)C)C(=O)N[C@@H](C)C(=O)N[C@H](C(=O)N[C@@H](CC(C)C)C(=O)N1CCC[C@H]1C(=O)N[C@@H](Cc1cnc[nH]1)C(=O)N[C@H](C(=O)N[C@@H](CCC(=O)O)C(=O)N[C@H](C(=O)NCC(=O)N[C@H](C(=O)NCC(=O)N[C@H](C(=O)N1CCC[C@H]1C(N)=O)[C@@H](C)O)[C@@H](C)O)[C@@H](C)O)[C@@H](C)O)[C@@H](C)O` [compound 93, [N-terminal(C20 diacid-gGlu), des1, 12H, 25H, 30T, 31G, 32T]mimylin] ({C20 diacid-γGlu}-ASELSTAALGHLSAELHELATLPHTETGTGTP-NH2), the Solubility entry is “≧200 μM” (pH 3.0); “≧200 μM” (pH 4.0); “≧200 μM” (pH 5.0); “≧200 μM” (pH 6.0); “≧200 μM” (pH 6.5); “≧200 μM” (pH 7.0). Also, the Solubility result was “≧200 μM” (pH 7.5) and “≧200 μM” (pH 8.0).

For `CC(C)C[C@H](NC(=O)[C@H](CCC(=O)O)NC(=O)[C@H](Cc1cnc[nH]1)NC(=O)[C@H](CC(C)C)NC(=O)[C@H](CCC(=O)O)NC(=O)[C@H](C)NC(=O)[C@H](CO)NC(=O)[C@H](CC(C)C)NC(=O)[C@H](CCCNC(=N)N)NC(=O)CNC(=O)[C@H](CC(C)C)NC(=O)[C@@H](NC(=O)[C@H](C)NC(=O)[C@@H](NC(=O)[C@@H](NC(=O)[C@H](CC(C)C)NC(=O)[C@H](CCC(=O)O)NC(=O)[C@H](CO)NC(=O)[C@H](C)NC(=O)CC[C@H](NC(=O)CCCCCCCCCCCCCCCCC(=O)O)C(=O)O)[C@@H](C)O)[C@@H](C)O)C(C)C)C(=O)N[C@@H](C)C(=O)N[C@H](C(=O)N[C@@H](CC(C)C)C(=O)N1CCC[C@H]1C(=O)N[C@@H](CCCNC(=N)N)C(=O)N[C@H](C(=O)N[C@@H](CCC(=O)O)C(=O)N[C@H](C(=O)NCC(=O)N[C@H](C(=O)NCC(=O)N[C@H](C(=O)N1CCC[C@H]1C(N)=O)[C@@H](C)O)[C@@H](C)O)[C@@H](C)O)[C@@H](C)O)[C@@H](C)O` [compound 95, [N-terminal(C18 diacid-gGlu), des1, 6T, 9V, 30T, 31G, 32T]mimylin] ({C18 diacid-γGlu}-ASELTTAVLGRLSAELHELATLPRTETGTGTP-NH2), the Solubility result is “≧200 μM” (pH 3.0); “≧200 μM” (pH 4.0); “≧200 μM” (pH 5.0); “≧200 μM” (pH 6.0); “≧200 μM” (pH 6.5); “≧200 μM” (pH 7.0). The Solubility entry runs as follows: (pH 7.5) “≧200 μM”; (pH 8.0) “≧200 μM”.

In the case of `CC(C)C[C@H](NC(=O)[C@H](CCC(=O)O)NC(=O)[C@H](Cc1cnc[nH]1)NC(=O)[C@H](CC(C)C)NC(=O)[C@H](CCC(=O)O)NC(=O)[C@H](C)NC(=O)[C@H](CO)NC(=O)[C@H](CC(C)C)NC(=O)[C@H](CCCNC(=N)N)NC(=O)CNC(=O)[C@@H](NC(=O)[C@@H](NC(=O)[C@H](C)NC(=O)[C@@H](NC(=O)[C@H](CO)NC(=O)[C@@H](NC(=O)[C@H](CCC(=O)O)NC(=O)[C@H](CO)NC(=O)[C@H](C)NC(=O)CC[C@H](NC(=O)CCCCCCCCCCCCCCCCC(=O)O)C(=O)O)C(C)C)[C@@H](C)O)C(C)C)C(C)C)C(=O)N[C@@H](C)C(=O)N[C@H](C(=O)N[C@@H](CC(C)C)C(=O)N1CCC[C@H]1C(=O)N[C@@H](CCCNC(=N)N)C(=O)N[C@H](C(=O)N[C@@H](CCC(=O)O)C(=O)N[C@H](C(=O)NCC(=O)N[C@@H](CO)C(=O)NCC(=O)N[C@@H](CO)C(=O)N1CCC[C@H]1C(N)=O)[C@@H](C)O)[C@@H](C)O)[C@@H](C)O` [compound 96, [N-terminal(C18 diacid-gGlu), des1, 5V, 9V, 10V, 30S, 31G]mimylin] ({C18 diacid-γGlu}-ASEVSTAVVGRLSAELHELATLPRTETGSGSP-NH2), the Solubility entry is, setting by setting: (pH 3.0) “≧200 μM”; (pH 6.0) “≧200 μM”; (pH 6.5) “≧200 μM”; (pH 7.0) “≧200 μM”; (pH 7.5) “≧200 μM”; (pH 8.0) “≧200 μM”. The solubility at 18 h is 177 µM (≈ 646 µg/mL) (pH 4.0) and 45 µM (≈ 164 µg/mL) (pH 5.0).

For `CC(C)C[C@H](NC(=O)[C@H](C)NC(=O)[C@H](C)NC(=O)[C@@H](NC(=O)[C@H](CO)NC(=O)[C@H](CC(C)C)NC(=O)[C@H](CCC(=O)O)NC(=O)[C@H](CO)NC(=O)[C@H](C)NC(=O)CC[C@H](NC(=O)CCCCCCCCCCCCCCCCCCC(=O)O)C(=O)O)[C@@H](C)O)C(=O)NCC(=O)N[C@@H](CCCNC(=N)N)C(=O)N[C@@H](CC(C)C)C(=O)N[C@@H](CO)C(=O)N[C@@H](C)C(=O)N[C@@H](CCC(=O)O)C(=O)N[C@@H](CC(C)C)C(=O)N[C@@H](Cc1cnc[nH]1)C(=O)N[C@@H](CCC(=O)O)C(=O)N[C@@H](CC(C)C)C(=O)N[C@@H](CO)C(=O)N[C@H](C(=O)N[C@@H](Cc1ccc(O)cc1)C(=O)N1CCC[C@H]1C(=O)N[C@@H](CCCNC(=N)N)C(=O)N[C@H](C(=O)N[C@@H](CCC(=O)O)C(=O)N[C@H](C(=O)NCC(=O)N[C@@H](CO)C(=O)NCC(=O)N[C@@H](CO)C(=O)N[C@@H](Cc1ccc(O)cc1)C(N)=O)[C@@H](C)O)[C@@H](C)O)[C@@H](C)O` [compound 97, [N-terminal(C20 diacid-gGlu), des1, 21S, 23Y, 30S, 31G, 33Y]mimylin] ({C20 diacid-γGlu}-ASELSTAALGRLSAELHELSTYPRTETGSGSY-NH2), the Solubility entry runs as follows: (pH 3.0) “≧200 μM”; (pH 4.0) “≧200 μM”; (pH 6.0) “≧200 μM”; (pH 6.5) “≧200 μM”; (pH 7.0) “≧200 μM”; (pH 7.5) “≧200 μM”. The Solubility result (pH 8.0) is “≧200 μM”. For the setting “pH 5.0”, this compound came in with a solubility at 18 h of 40 µM (≈ 152 µg/mL).

Take `CC(C)C[C@H](NC(=O)CNC(=O)[C@H](CO)NC(=O)[C@H](C)NC(=O)CC[C@H](NC(=O)CCCCCCCCCCCCCCCCCCC(=O)O)C(=O)O)C(=O)N[C@@H](CO)C(=O)N[C@H](C(=O)N[C@@H](C)C(=O)N[C@H](C(=O)N[C@@H](CC(C)C)C(=O)NCC(=O)N[C@@H](CCCNC(=N)N)C(=O)N[C@@H](CC(C)C)C(=O)N[C@@H](CO)C(=O)N[C@@H](C)C(=O)N[C@@H](CCC(=O)O)C(=O)N[C@@H](CC(C)C)C(=O)N[C@@H](Cc1cnc[nH]1)C(=O)N[C@@H](CCC(=O)O)C(=O)N[C@@H](CC(C)C)C(=O)N[C@@H](C)C(=O)N[C@H](C(=O)N[C@@H](Cc1ccc(O)cc1)C(=O)N1CCC[C@H]1C(=O)N[C@@H](CCCNC(=N)N)C(=O)N[C@H](C(=O)N[C@@H](CCC(=O)O)C(=O)N[C@H](C(=O)NCC(=O)N[C@@H](CO)C(=O)NCC(=O)N[C@H](C(=O)N1CCC[C@H]1C(N)=O)[C@@H](C)O)[C@@H](C)O)[C@@H](C)O)[C@@H](C)O)C(C)C)[C@@H](C)O` [compound 98, [N-terminal(C20 diacid-gGlu), des1, 4G, 9V, 23Y, 30S, 31G, 32T]mimylin] ({C20 diacid-γGlu}-ASGLSTAVLGRLSAELHELATYPRTETGSGTP-NH2): the Solubility entry is “≧200 μM” (pH 3.0); “≧200 μM” (pH 4.0); “≧200 μM” (pH 5.0); “≧200 μM” (pH 6.0); “≧200 μM” (pH 6.5); “≧200 μM” (pH 7.0). Besides, the Solubility result (pH 7.5) is on record as “≧200 μM” and the Solubility result (pH 8.0) is reported as “≧200 μM”.
